Laboratory results published in article PMC11475320 (2024).

Legend:
Assay in all cases: CD melting at 260 nm
[1] = test system: As1411 (DNA, G4) GGTGGTGGTGGTTGTGGTGGTGGTGG; conditions: K+ 40 mM, Mg2+ from TAMg buffer (0.04×), 2% DMF, 4 μM ZnPc, 16 μM DNA, derived from two Tm (59.8, 61.7)
[2] = test system: AsGq (G-quadruplex of As4625') (DNA, G4) GGTGGTGGTGGTTGTGGTGGTGGTGGAACGGAGGCTGGGAT; conditions: K+ 40 mM, Mg2+ from TAMg buffer (0.04×), 2% DMF, 4 μM ZnPc, 16 μM DNA, derived from two Tm (53.0, 54.6)
[3] = test system: AsGq-4625 (DNA, G4, strand 2: 2'-OMe at 1-5 and 16-20 (text b19; Table S1 footnote says 2'-modification with hydroxy group); phosphorothioate at all linkages) GGTGGTGGTGGTTGTGGTGGTGGTGGAACGGAGGCTGGGAT/AAGGCATCCCAGCCTCCGUU; conditions: K+ 40 mM, Mg2+ from TAMg buffer (0.04×), 2% DMF, 4 μM ZnPc, 16 μM DNA, derived from two Tm (52.3, 53.1)

ΔTm [1]: 1.9 °C
ΔTm [2]: 1.6 °C
ΔTm [3]: 0.8 °C
Compound: [Zn+2].c1ccc2c(c1)-c1nc3nc(nc4[n-]c(nc5[n-]c(nc-2n1)c1ccccc51)c1ccccc41)-c1ccccc1-3
